Measured values as given in patent US20250346571A1, “BICYCLIC DERIVATIVE PARP INHIBITOR AND USE THEREOF” (XIZANG HAISCO PHARMACEUTICAL CO., LTD., priority 2022, published 2025).

Assay: Pharmacokinetic test in mice
Format: in vivo, Balb/c mice
Description: 4.1 Experimental animal: male Balb/c mice, 20-25 g, 12 mice/compound, purchased from Chengdu Ddossy Experimental Animals Co., Ltd.
4.2 Experimental design: on the day of the test, 60 Balb/c mice were randomly grouped according to their body weights. The animals were fasted with water available for 12 to 14 h one day before the administration and were fed 4 h after the administration.
Before and after the administration, 0.06 mL ofblood was taken from the orbit of the animals under isoflurane anesthesia and placed in an EDTAK2 centrifuge tube. The blood was centrifuged at 5000 rpm and 4° C. for 10 min to collect plasma. The blood collection time points for the intravenous administration group and intragastric administration group were 0, 5 min, 15 min, 30 min, 1 h, 2 h, 4 h, 6 h, 8 h, and 24 h. The brain tissues were collected at 30 min, 2 h and 24 h after administration of compounds 12, 15 and 18, respectively. The brain tissues were collected 24 hours after administration of compounds 2 and 5, rinsed with cold physiological saline to remove the residual blood on the surface, drained out and then homogenized. Before analysis and detection, all samples were stored at −80° C. The samples were analyzed quantitatively by LC-MS/MS.

[1] = male, Balb/c, mouse, iv, mice, i.v. 2.5 mg/kg, plasma

pharmacokinetic characteristics in mice (conclusion in words): good pharmacokinetic characteristics
AUC(0-t) [1]: 19000 ± 3590 ng·h/mL
clearance [1]: 2.16 ± 0.31 mL/min/kg
Vd (male, Balb/c, mouse, iv, mice, i.v. 2.5 mg/kg, plasma, read-out: Vdss): 0.42 ± 0.017 L/kg
bioavailability (male, Balb/c, mouse, plasma, po, mice, i.g. 10 mg/kg): ≥ 98%
AUC(0-t) (male, Balb/c, mouse, po, mice, i.g. 10 mg/kg, plasma): 80800 ng·h/mL
SMILES: O=C(NC1CC1)c1ccc(N2CCN(Cc3ccc4nc(C(F)F)c(=O)[nH]c4c3F)CC2)c(F)n1 [Compound 12, N-cyclopropyl-5-(4-((2-(difluoromethyl)-5-fluoro-3-oxo-3,4-dihydroquinoxalin-6-yl)methyl)piperazin-1-yl)-6-fluoropicolinamide]
